The text below walks through data of patent US20140336182A1, “Aurora Kinase Modulators and Method of Use” (Amgen Inc., priority 2013, published 2014).

In one data set the test system is HeLa cells. Briefly: HeLa cell 24 hr ploidy assay (DNA content). Type of data set: cell-based. To be noted: Homo sapiens, HeLa, 4N ploidy, average, read-out: 24h_4NPloidy EC50_IP (uM Avg). Summed up: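 DNA content measured by Hoechst 33342 nuclear staining (0.5 ug/ml, 45 min RT) and high-content imaging of fixed HeLa cells after 24 h compound exposure in 0.25% DMSO. Fractions of 4N and >4N cells fitted to dose curves giving EC50 IP, EC50 transit, Max and Min.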

Data set [1] concerns HCT116 xenografts, a human colon carcinoma model. Briefly: HCT116 xenograft model, tumor growth inhibition. As to conditions: mice, p.o. The data set is classed as in vivo, athymic nude mice. On the procedure: Compounds of the present invention were evaluated in HCT116 xenografts, a human colon carcinoma model. […] These cells were grown as subcutaneous xenografts in female HSD (Harlan Sprague Dawley) athymic nude mice. Mice were implanted subcutaneously with 2×10^6 cells in matrigel on day 0. Treatment was initiated on day 10 with compounds of the invention at the indicated dosage p.o for 2 consecutive-days per week (intermittent schedule, such as 2 days on—5 days off) or 7-days (continuous schedule) per week, for a selected number of weeks. For example, in one study, animals were dosed with selected compound samples BID on an intermittent dosing paradigm of two days on and then 5 days off per week, for four weeks (four dosing cycles) at 15, 7.5, and 3.75 mg/kg. Tumor growth inhibition and body weights were measured throughout the study and compared to the vehicle control group. All groups were provided nutritional supplements on a daily basis throughout the study to maintain body weight. Terminal neutrophil counts were taken at the end of this study. Measures were made by ANOVA followed by Scheffe post hoc test using StatView software v5.0.1.
10 Flasks containing a total of 7.68×10^8 HCT 116 tumor cells were harvested for tumor cell implantation. HCT 116 cells were re-suspended to a cell concentration of about 2×10^7 cells/ml in serum-free McCoys 5A media+50% matrigel. Cell viability was measured to be about 99.3%.
Female Athymic Nude mice approximately 14 weeks of age (Harlan Sprague Dawley) were used for the experiment. […] On Day 9, tumor-bearing mice were measured and randomized into five groups (n=10). […] During the dosing period, mouse tumor volumes were measured with a digital caliper and weighed twice per week. Tumor volumes were calculated as follows: Tumor Volume (mm^3)=[(W^2 X L)/2] where width (W) is defined as the smaller of the 2 measurements and length (L) is defined as the larger of the 2 measurements.

Data set [2] in a line: Solubility in DMSO (observation in the synthesis). Type of data set: physicochemical. As to conditions: DMSO at rt. The procedure:
The reaction was cooled to rt. Hexane was added to induce the product to precipitate out of the reaction mixture. The resulting red solid was filtered with an aid of hexane. LCMS confirmed that the solid was the product. The product was purified by performing a column chromatography on silica gel using 60:40 CH2Cl2:(90:10:1 CH2Cl2:MeOH:NH4OH). Yellow solid was obtained. LCMS confirmed product. […] MS Calcd for […]: [M]=472. Found: [M+H]=473.

Each structure is given as a SMILES string. Where two headings read alike, the source gives them in different places.

Regarding `COc1cnc2c(Oc3ccc(Nc4nnc(-c5ccc(Cl)cc5)c5ccccc45)cc3)ccnc2c1` [Example 160, 4-(4-chlorophenyl)-N-(4-((7-(methyloxy)-1,5-naphthyridin-4-yl)oxy)phenyl)-1-phthalazinamine], in the data set on HeLa cells, the EC50 was determined as 0.005 µM. Also, in data set [1] (3.75 mg/kg 2-day dosing scheduling QD), the inhibition of tumor growth was found to be 86%.

As to `COc1cnc2c(Sc3ccc(Nc4nnc(-c5ccccc5)c5ccccc45)cc3)ccnc2c1` [Example 207, N-(4-((7-(methyloxy)-1,5-naphthyridin-4-yl)thio)phenyl)-4-phenyl-1-phthalazinamine], the EC50 with HeLa cells (HeLa cells) was found to be 0.005 µM. Also, the inhibition of tumor growth in data set [1] (5.0 mg/kg 2-day dosing scheduling QD) was 67%.

With `COc1cnc2c(Nc3cnc(Nc4nnc(-c5ccccc5)c5ccccc45)nc3)ccnc2c1` [Example 36, N^5-(7-Methoxy-1,5-naphthyridin-4-yl)-N^2-(4-phenylphthalazin-1-yl)pyrimidine-2,5-diamine], the EC50 with HeLa cells came to 0.326 µM. Also, the “solubility in DMSO” value in data set [2] is “slightly soluble”.

In the case of `COc1cnc2c(Oc3ccc(Nc4nnc(-c5ccc6c(c5)OCO6)c5ccccc45)cc3)ccnc2c1` [Example 165, 4-(1,3-benzodioxol-5-yl)-N-(4-((7-(methyloxy)-1,5-naphthyridin-4-yl)oxy)phenyl)-1-phthalazinamine], the EC50 in the data set with HeLa cells (HeLa cells) is 0.006 µM. In data set [1] (2.5 mg/kg 2-day dosing scheduling BID), this molecule had an inhibition of tumor growth of 63%.
